In patent publication US20070197426A1, “Lactoferrin polypeptide, process for producing the same and inflammation inducing substance” (priority 2004, published 2007):

Legend:
Format in all cases: cell-based
Details in all cases: normal human peripheral blood lymphocytes
IL-6 = IL-6 production by human peripheral blood lymphocytes co-cultured with peptide (enzyme antibody method)
Protocol: (§1) Lymphocytes were separated from normal human peripheral blood, which was collected by using heparin sodium, by specific gravity centrifugation using Lympholight H (Cedarlane, Canada), and inducing ability for production of various cytokines and chemokines and inducing ability for expression of NFκBp65, a cellular transcription factor, were analyzed using the lymphocytes. Human cytokines (IL-6 and TNFα; Techne Co., USA), chemokines (IL-8 and MCP-1; American Research Product, Inc., USA) and on NFκB (TransAM NFκB family transcription factor assay kit; Active Motif, Co., USA) were measured by enzyme antibody method.

IL-8 = IL-8 production by human peripheral blood lymphocytes co-cultured with peptide (enzyme antibody method)
Protocol: as §1

MCP-1 = MCP-1 production by human peripheral blood lymphocytes co-cultured with peptide (enzyme antibody method)
Protocol: as §1

NFκBp65 = NFκBp65 expression in human peripheral blood lymphocytes (TransAM NFκB family transcription factor assay kit)
Protocol: as §1

Substance	production of IL-6, one inflammatory cytokine (IL-6)	inducing ability for production of IL-8 (IL-8)	inducing ability for production of MCP-1 (MCP-1)	enhancement of expression of NFκBp65, a cellular transcription factor (NFκBp65)
GQKDLLFKDSAI [HuPep4]	could be confirmed	confirmed	confirmed	confirmed
FKDCHLA [HuPep1]	could be confirmed	confirmed	confirmed	confirmed
